Laboratory results as given in ChEMBL document CHEMBL1127936, “Mercaptoacyl dipeptides as dual inhibitors of angiotensin-converting enzyme and neutral endopeptidase. Preliminary structure-activity studies” (Bioorg Med Chem Lett, 1994).

Tests used:
[1] = target: T1, Angiotensin-converting enzyme (Oryctolagus cuniculus, UniProt P12822); assay: In vitro inhibition of rabbit lung Angiotensin I converting enzyme (ACE) using Hippuryl-His-Leu as substrate
T1 sequence (P12822 whole entry): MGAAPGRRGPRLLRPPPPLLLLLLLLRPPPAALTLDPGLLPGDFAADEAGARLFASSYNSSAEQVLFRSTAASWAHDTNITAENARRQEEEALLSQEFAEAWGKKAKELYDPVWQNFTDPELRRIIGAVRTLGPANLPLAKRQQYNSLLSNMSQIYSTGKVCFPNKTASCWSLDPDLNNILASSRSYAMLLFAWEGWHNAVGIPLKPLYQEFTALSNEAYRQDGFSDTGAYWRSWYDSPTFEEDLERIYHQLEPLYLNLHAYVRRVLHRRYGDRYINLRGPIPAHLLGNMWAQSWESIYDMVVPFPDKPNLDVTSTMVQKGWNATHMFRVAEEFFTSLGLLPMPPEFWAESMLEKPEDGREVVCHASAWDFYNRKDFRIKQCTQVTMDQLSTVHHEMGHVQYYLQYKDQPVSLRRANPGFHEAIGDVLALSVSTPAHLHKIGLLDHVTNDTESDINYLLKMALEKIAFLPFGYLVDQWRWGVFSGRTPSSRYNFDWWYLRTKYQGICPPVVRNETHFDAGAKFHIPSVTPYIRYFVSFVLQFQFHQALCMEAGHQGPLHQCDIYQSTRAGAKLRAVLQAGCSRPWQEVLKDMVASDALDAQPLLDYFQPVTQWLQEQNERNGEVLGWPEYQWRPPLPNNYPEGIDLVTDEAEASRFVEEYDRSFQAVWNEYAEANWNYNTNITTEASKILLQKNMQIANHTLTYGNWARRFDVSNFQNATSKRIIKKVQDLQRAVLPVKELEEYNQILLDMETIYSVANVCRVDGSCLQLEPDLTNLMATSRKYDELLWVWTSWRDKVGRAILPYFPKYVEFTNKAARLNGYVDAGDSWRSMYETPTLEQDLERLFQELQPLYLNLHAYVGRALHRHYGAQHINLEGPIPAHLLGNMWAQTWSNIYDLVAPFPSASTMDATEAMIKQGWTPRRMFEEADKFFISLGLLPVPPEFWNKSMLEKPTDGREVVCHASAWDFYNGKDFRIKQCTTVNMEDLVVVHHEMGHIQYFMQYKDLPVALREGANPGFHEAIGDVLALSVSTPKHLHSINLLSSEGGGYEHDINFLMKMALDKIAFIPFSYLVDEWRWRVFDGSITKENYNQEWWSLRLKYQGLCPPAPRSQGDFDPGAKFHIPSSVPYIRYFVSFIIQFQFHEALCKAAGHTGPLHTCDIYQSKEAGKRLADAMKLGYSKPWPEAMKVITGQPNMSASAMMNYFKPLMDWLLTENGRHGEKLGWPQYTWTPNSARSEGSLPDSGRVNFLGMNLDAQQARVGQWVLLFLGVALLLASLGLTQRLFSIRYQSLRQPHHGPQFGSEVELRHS

Neprilysin = target: T2, Neprilysin (Rattus norvegicus, UniProt P07861); assay: In vitro inhibition of rat kidney neutral endopeptidase (NEP) by fluorometric assay using Dansyl-Gly-Phe-Arg as substrate
T2 sequence (P07861 whole entry): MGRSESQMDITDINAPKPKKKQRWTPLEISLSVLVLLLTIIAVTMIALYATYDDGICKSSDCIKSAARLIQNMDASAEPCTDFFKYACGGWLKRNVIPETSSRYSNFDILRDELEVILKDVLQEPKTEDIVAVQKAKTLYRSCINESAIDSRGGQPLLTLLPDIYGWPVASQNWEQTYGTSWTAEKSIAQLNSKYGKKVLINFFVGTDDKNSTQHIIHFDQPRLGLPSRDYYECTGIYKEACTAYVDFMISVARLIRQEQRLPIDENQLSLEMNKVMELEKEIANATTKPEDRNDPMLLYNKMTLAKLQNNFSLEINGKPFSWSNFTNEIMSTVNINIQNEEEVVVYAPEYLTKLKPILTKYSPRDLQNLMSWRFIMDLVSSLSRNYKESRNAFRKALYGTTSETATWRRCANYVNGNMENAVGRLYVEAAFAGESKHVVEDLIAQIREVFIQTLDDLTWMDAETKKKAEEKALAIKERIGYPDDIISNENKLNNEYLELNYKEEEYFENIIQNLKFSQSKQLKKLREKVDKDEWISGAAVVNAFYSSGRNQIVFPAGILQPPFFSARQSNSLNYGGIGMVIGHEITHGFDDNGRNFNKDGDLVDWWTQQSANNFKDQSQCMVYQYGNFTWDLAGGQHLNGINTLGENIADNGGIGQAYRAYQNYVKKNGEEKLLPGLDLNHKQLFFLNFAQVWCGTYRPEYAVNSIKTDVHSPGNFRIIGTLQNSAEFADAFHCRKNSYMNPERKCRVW

Rattus norvegicus [2] = assay: In vivo inhibition of angiotensin I-induced pressor response after iv administration in normotensive rats; type: functional
Rattus norvegicus [3] = assay: In vivo inhibition of angiotensin- 1 induced pressor response after iv administration in normotensive rats; type: functional

Row | Structure (SMILES) | IC50 [1] [nM] | IC50 (Neprilysin) [nM] | ED50 (Rattus norvegicus [2]) [µmol/kg] | ED50 (Rattus norvegicus [3]) [µmol/kg]
1 | C[C@H](NC(=O)C(CS)CCc1ccccc1)C(=O)N1CCC[C@@H]1C(=O)O (stereo not given in full) | 290 | 160 | – | –
2 | C[C@H](NC(=O)[C@H](Cc1ccccc1)[C@@H](C)S)C(=O)N1CCC[C@H]1C(=O)O | 78 | 182 | > 5 | –
3 | C[C@H](NC(=O)[C@@H](CS)Cc1ccc(OCc2ccccc2)cc1)C(=O)N1CCC[C@@H]1C(=O)O | 880 | 40 | – | –
4 | O=C(N[C@@H](Cc1c[nH]c2ccccc12)C(=O)N1CCC[C@H]1C(=O)O)[C@@H](CS)Cc1ccccc1 | 10 | 25 | 6.4 | –
5 | C[C@H](NC(=O)[C@@H](CS)Cc1ccccc1)C(=O)N1Cc2ccccc2C[C@H]1C(=O)O | 14 | 3.9 | 0.57 | –
6 | C[C@H](NC(=O)[C@@H](CS)Cc1ccccc1)C(=O)N1c2ccccc2C[C@H]1C(=O)O | 7.8 | 2.6 | 0.15 | –
7 | C[C@H](NC(=O)[C@@H](CS)Cc1ccccc1)C(=O)O | 120 | – | – | 15
8 | C[C@H](NC(=O)[C@@H](S)Cc1ccccc1)C(=O)N1CCC[C@H]1C(=O)O | 30 | 400 | 0.06 | –
9 | O=C(O)CCNC(=O)[C@@H](CS)Cc1ccccc1 | 32000 | 9.4 | – | –
10 | CC(C)C[C@H](NC(=O)[C@@H](S)Cc1ccccc1)C(=O)O | 1600 | – | – | –
11 | C[C@H](NC(=O)[C@@H](CS)Cc1ccccc1)C(=O)N1CCC[C@H]1C(=O)O | 4 | 6.6 | 0.5 | –
12 | CC(C)CC(CS)C(=O)N[C@@H](C)C(=O)N1CCC[C@@H]1C(=O)O (stereo not given in full) | 490 | 10 | – | –
13 | C[C@H](NC(=O)[C@H](S)Cc1ccccc1)C(=O)N1CCC[C@H]1C(=O)O | 80 | 285 | 0.03 | –
14 | C[C@H](NC(=O)[C@H](Cc1ccccc1)[C@H](C)S)C(=O)N1CCC[C@H]1C(=O)O | 452 | 32 | – | –
15 | Cc1ccccc1C[C@H](CS)C(=O)N[C@@H](C)C(=O)N1CCC[C@@H]1C(=O)O | 69 | 6.2 | 4.2 | –
16 | CC(C)C[C@H](NC(=O)[C@@H](CS)Cc1ccccc1)C(=O)O | 37 | – | – | –
17 | C[C@H](NC(=O)[C@@H](CS)Cc1ccccc1)C(=O)N1C[C@H](C2CCCCC2)C[C@H]1C(=O)O | 18 | 6.6 | 2.5 | –
18 | C[C@H](NC(=O)[C@H](CS)Cc1ccccc1)C(=O)N1CCC[C@H]1C(=O)O | 210 | 45 | 8.1 | –
19 | C[C@H](NC(=O)[C@@H](CS)Cc1ccccc1Cl)C(=O)N1CCC[C@@H]1C(=O)O | 25 | 2.2 | 2.6 | –
20 | C[C@H](CS)C(=O)N[C@@H](C)C(=O)N1CCC[C@@H]1C(=O)O | 1800 | 140 | – | –
21 | CCC[C@H](NC(=O)[C@@H](CS)Cc1ccccc1)C(=O)N1CCC[C@H]1C(=O)O | 10 | 2 | 2.2 | –
22 | C[C@H](NC(=O)[C@@H](CS)Cc1ccccc1)C(=O)N1C[C@@H](Sc2ccccc2)C[C@H]1C(=O)O | 8.7 | 1.6 | 0.78 | –
